In ChEMBL document CHEMBL5209580, “Flow cytometry transport assay for SLC2A3 using HEK293 JumpIN TRex SLC2A3 WT-OE cells” (2022):

Biological target: T1, Solute carrier family 2, facilitated glucose transporter member 3 (Homo sapiens, UniProt P11169)
T1 sequence (P11169 whole entry): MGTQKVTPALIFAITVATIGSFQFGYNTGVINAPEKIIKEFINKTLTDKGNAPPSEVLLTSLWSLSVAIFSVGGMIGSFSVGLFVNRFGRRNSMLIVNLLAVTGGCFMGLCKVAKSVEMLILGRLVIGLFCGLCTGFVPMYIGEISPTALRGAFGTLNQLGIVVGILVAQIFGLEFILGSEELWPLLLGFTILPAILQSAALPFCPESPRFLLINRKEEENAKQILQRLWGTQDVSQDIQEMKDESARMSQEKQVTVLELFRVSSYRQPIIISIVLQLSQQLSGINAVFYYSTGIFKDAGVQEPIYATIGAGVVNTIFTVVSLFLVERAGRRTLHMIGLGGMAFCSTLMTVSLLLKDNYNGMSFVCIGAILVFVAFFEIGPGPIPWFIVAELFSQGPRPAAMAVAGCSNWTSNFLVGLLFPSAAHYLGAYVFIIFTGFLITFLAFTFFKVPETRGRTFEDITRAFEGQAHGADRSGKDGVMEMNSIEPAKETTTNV
Assay: Inhibition of the Glucose Transporter (GLUT3, SLC2A3) as assessed by a FRET based flow cytometry assay using a genetically-encoded biosensor for measuring free glucose (FLII12Pglu-700uDelta6) in HEK293 JumpIN TRex SLC2A3 WT-OE cells (PubChem AID: 1794827)
Format: functional, cell-based

IC50: > 10 µM
SMILES: O=C(Oc1cccc(F)c1OC(=O)c1cccc(O)c1)c1cccc(O)c1
